# Test results taken from patent US5990163A, “Selective modulation of processes mediated by retinoid X receptors, and compounds useful therefor” (The Salk Institute for Biological Studies, priority 1995, dated 1999).
# Entries after “also recorded” stand apart in the source; their conditions may differ.
# Legend:
# hRXRα [1] = target: T1, hRXRα (Homo sapiens, UniProt P19793); test: Cotransfection assay in Schneider cells, RXR expression plasmid and ADH-CRBPII-LUC luciferase reporter; assay type: cell-based; details: for activation of RXR (transcription from the reporter construct), in words: Schneider cells, ADH-CRBPII-LUC
# T1 sequence (P19793 1-462): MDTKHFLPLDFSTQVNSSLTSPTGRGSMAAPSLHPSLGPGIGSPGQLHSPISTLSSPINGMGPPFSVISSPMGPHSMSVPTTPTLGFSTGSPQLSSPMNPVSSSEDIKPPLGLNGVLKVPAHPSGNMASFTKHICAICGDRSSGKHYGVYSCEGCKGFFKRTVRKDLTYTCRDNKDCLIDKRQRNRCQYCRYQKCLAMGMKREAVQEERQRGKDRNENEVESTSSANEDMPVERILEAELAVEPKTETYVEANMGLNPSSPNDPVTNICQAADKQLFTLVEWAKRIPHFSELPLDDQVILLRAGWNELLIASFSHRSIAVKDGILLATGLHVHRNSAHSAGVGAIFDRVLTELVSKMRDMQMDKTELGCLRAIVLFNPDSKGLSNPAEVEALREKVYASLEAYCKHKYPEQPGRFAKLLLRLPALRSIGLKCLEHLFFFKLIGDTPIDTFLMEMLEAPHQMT
# Experimental: Candidate ligands were initially tested in Schneider cells cotransfected with an RXR expression plasmid and a luciferase reporter plasmid containing an RXR specific response element.
# Cell lysates were then assayed for luciferase activity, which is expressed as relative light units (RLU) and represents the mean of triplicate assays (±SEM) normalized to β-galactosidase as an internal control. […] After 24 hours, ligand was added to the transfected cells. Thirty six hours later, the cells were harvested and extracts prepared and assayed for enzyme activity as described by Heyman et al., supra, and Clayton, supra. Luciferase values were normalized for transfection and harvesting efficiency by measuring β-galactosidase activity, and the results reported as average relative light units (RLU) for at least two replicates.
# hRXRα [2] = target: T1, hRXRα; test: Competitive ligand binding, competition for [3H]9cRA binding; details: 40 nM [3H]9cRA, increasing concentrations of unlabelled compound
# Experimental: Binding analysis was performed as described by Boehm et al., in J. Med. Chem. 37:2930-2941 (1994). Compounds used in these studies were prepared according to Wecksler and Norman (Anal. Biochem. 92:314-323 (1979).
# GAL4-hRARα = target: T2, GAL4-hRARα (Homo sapiens, UniProt P10276); test: Cotransfection with GAL4 chimeric receptor, TK-MH100×4-LUC reporter in CV-1 cells; assay type: cell-based; details: 10^-5 M ligand
# T2 construct: CMX plasmid, CV-1 cells, TK-MH100x4-LUC
# T2 sequence (P10276 203-462): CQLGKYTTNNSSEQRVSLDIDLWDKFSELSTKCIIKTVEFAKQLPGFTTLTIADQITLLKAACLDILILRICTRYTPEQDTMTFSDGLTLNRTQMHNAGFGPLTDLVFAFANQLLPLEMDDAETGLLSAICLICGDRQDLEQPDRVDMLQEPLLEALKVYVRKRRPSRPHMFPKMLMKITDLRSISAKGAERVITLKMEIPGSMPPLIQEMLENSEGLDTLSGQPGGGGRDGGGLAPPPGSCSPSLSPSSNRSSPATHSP
# Source text: (§1) Thus, CV-1 cells were cotransfected with the expression plasmid CMX-GAL4-hRXRα, CMX-GAL4-hRARα, CMX-GAL4-RARβ or CMX-GAL4-RARγ and the reporter plasmid TK-MH100×4-LUC. The constructs consisted of the GAL4 DNA binding domain (amino acids 1-147; see Sadowski and Ptashne in Nucl. Acids Res. 17:7539 (1989)) ligated in frame to the ligand binding and C-terminal activation domains of hRARα (amino acids 203-462; see Giguere et al., in Nature 330:624 (1987), hRARβ (amino acids 178-448; see Brand et al., in Nature 332:850 (1988), RARγ (amino acids 187-454; see Ishikawa et al., in Mol. Endo. 4:837 (1990) and RXRα (amino acids 203-462; see Mangelsdorf et al., in Nature 345:224 (1990). These GAL4-receptor chimeras were then introduced into CMX expression vectors (see Umesono et al., in Cell 65:1255 (1991)). The GAL4-responsive reporter plasmid, TK-MH100×4-LUC, was constructed by inserting 4 copies of the yeast UASG enhancer (i.e., MH100; see Webster et al., in Cell 52:169 (1988)) into the luciferase reporter plasmid TK-LUC. CV-1 cells seeded into 48 well culture plates were co-transfected with 80 ng of the reporter plasmid TK-Mh100×4-LUC, 50 ng of CMX-βgal expression plasmid, and 80 ng of receptor expression plasmid (either CMX-GAL4 as a control, CMX-GAL4-hRARα, CMX-GAL4-hRARβ, CMX-GAL4-hRARγ or CMX-GAL4-hRXRα). […] Cotransfections, ligand addition and luciferase assays were performed as described in Example 3.
# (§2) The above-described chimeric proteins can bind to a GAL4 upstream activation sequence (UASG) in the promoter of a luciferase reporter, but can only activate transcription in the presence of the hybrid receptor's ligand. The distinct advantage of using the GAL4-receptor system, instead of the wild-type receptors and response elements, is that the GAL4-hybrids provide a sensitive and effective means for assaying receptor/ligand interactions, even in the presence of the cell's endogenous wild-type receptors.
# GAL4-hRARβ = target: T3, GAL4-hRARβ (Homo sapiens, UniProt P10826); test: as above; assay type: cell-based; details: 10^-5 M ligand
# T3 construct: CMX plasmid, CV-1 cells, TK-MH100x4-LUC
# T3 sequence (P10826 185-455): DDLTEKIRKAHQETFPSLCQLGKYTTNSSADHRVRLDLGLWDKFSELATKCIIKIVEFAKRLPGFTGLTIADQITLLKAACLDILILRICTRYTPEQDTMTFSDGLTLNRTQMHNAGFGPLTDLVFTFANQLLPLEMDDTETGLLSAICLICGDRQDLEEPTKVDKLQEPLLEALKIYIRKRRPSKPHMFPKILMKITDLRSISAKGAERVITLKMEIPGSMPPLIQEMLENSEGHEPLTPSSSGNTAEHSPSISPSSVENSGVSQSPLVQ
# Source text: as §1, §2
# GAL4-hRARγ = target: T4, GAL4-hRARγ (Homo sapiens, UniProt P13631); test: as above; assay type: cell-based; details: 10^-5 M ligand
# T4 construct: CMX plasmid, CV-1 cells, TK-MH100x4-LUC
# T4 sequence (P13631 187-454): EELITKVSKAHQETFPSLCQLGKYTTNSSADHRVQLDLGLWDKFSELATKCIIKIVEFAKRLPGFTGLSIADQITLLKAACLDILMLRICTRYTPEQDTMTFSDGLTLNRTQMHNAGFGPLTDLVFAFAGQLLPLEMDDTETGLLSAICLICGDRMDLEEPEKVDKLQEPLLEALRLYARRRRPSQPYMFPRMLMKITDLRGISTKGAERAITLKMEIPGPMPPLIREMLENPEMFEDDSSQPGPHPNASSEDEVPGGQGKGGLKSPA
# Source text: as §1, §2
# [3] = previous studies (Quistad et al.); a major product is methoprene acid; cited from earlier work
# mouse RXRα = test: Transactivation dose response, CRBPII-LUC reporter in Schneider and CV-1 cells; assay type: cell-based; details: Schneider cells and CV-1 cells
# Experimental: (§3) Cell lysates were then assayed for luciferase activity, which is expressed as relative light units (RLU) and represents the mean of triplicate assays (±SEM) normalized to β-galactosidase as an internal control. Thus, Schneider cells in 6-well culture plates were co-transfected with 0.5 μg ADH-CRBPII-LUC, 0.5 μg A5C-βgal and 1 μg of receptor plasmid (either A5C-mRXRα, A5C-mRXRβ, A5C-mRXRγ or A5C-hRXRα) by the CaPO4 precipitation method, as described by Heyman et al., in Cell 68:397 (1992) and Clayton in Aspects of Terpenoid Chemistry and Biology, T. W. Goodwin, ed. (Academic Press, London) pp. 1-23 (1971). After 24 hours, ligand was added to the transfected cells. Thirty six hours later, the cells were harvested and extracts prepared and assayed for enzyme activity as described by Heyman et al., supra, and Clayton, supra. Luciferase values were normalized for transfection and harvesting efficiency by measuring β-galactosidase activity, and the results reported as average relative light units (RLU) for at least two replicates.
# (§4) To further test the ability of methoprene acid to function as an RXR ligand, the transactivation properties of methoprene on all three RXR subtypes was investigated. FIG. 3 presents the dose responses of the three RXR subtypes to methoprene acid in insect Schneider cells (FIG. 3A), or mammalian CV-1 cells (FIG. 3B) cotransfected with expression plasmids for mouse RXRα, RXRβ, or RXRγ and the reporter plasmid ADH-CRBPII-LUC (for Schneider cells) or TK-CRBPII-LUC (for CV-1 cells).
# (§5) Experiments in Schneider cells were conducted as described in Example 1. Experiments in CV-1 cells were conducted as follows. CV-1 cells were seeded into 48-well sulture dishes and co-transfected with 50 ng of TK-CRBPII-LUC reporter plasmid, 50 ng of CMX-βgal expression plasmid, and 25 ng of expression plasmid for receptor (either CMX-mRXRα, CMX-mRXRβ or CMX-mRXRγ) by the CaPO4 precipitation method, as described by Heyman et al., supra and Clayton supra. […] Luciferase activity was determined as described by Unsworth et al., in Life Sciences 15:1649 (1974).
# mouse RXRβ = test: as above; assay type: cell-based; details: Schneider cells and CV-1 cells
# Experimental: as §3, §4, §5
# mouse RXRγ = test: as above; assay type: cell-based; details: Schneider cells and CV-1 cells
# Experimental: as §3, §4, §5
# GAL4-hRXRα = target: T5, GAL4-hRXRα (Homo sapiens, UniProt P19793); test: Cotransfection with GAL4 chimeric receptor, TK-MH100×4-LUC reporter in CV-1 cells; assay type: cell-based; details: 10^-5 M ligand
# T5 construct: CMX plasmid, CV-1 cells, TK-MH100x4-LUC
# T5 sequence (P19793 203-462): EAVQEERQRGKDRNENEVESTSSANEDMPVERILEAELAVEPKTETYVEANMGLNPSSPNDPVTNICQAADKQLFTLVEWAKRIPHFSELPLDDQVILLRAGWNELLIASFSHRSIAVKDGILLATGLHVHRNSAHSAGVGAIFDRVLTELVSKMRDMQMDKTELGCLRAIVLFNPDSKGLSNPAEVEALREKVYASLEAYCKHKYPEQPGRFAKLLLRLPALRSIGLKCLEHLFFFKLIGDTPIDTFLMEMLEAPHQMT
# Source text: as §1, §2
# RXR-alpha = test: Expression of genes under the control of regulatory elements of apolipoprotein AI; assay type: cell-based
# [4] = 36 h, read-out: induction of luciferase reporter above methanol control
compound,measurement,setting,value
"CCOC(=O)/C=C(C)/C=C/CC(C)CCCC(C)C (stereo not drawn) [hydroprene, ethyl (2E,4E)-3,7,11-trimethyl-2,4-dodecadienoate]","activation of RXR (transcription from the reporter construct), in words",hRXRα [1],activate RXR
same,"competition for [3H]9cRA binding to RXRα, in words",hRXRα [2],not
CC(/C=C/CC(C)CCCC(C)C)=C\C(=O)O (stereo not drawn) [hydroprene acid],fold induction at 100 µM,hRXRα [1]; [4],81
same,"competition for [3H]9cRA binding to RXRα, in words",hRXRα [2],observed to bind RXR
"CC(C)=CCC/C(C)=C/CC/C(C)=C/CO [farnesol, (2E,6E,10E)-3,7,11-trimethyl-2,6,10-dodecatrienol, reference compound]","activation of RXR (transcription from the reporter construct), in words",hRXRα [1],do not activate RXR
"CC1=C(/C=C/C(C)=C\C=C\C(C)=C\C(=O)O)C(C)(C)CCC1 [9cRA, 9-cis-retinoic acid, reference compound]","activation of transcription with GAL4-RARα, in words",GAL4-hRARα,can activate transcription
same,"activation of transcription with GAL4-RARβ, in words",GAL4-hRARβ,can activate transcription
same,"activation of transcription with GAL4-RARγ, in words",GAL4-hRARγ,can activate transcription
"COC(=O)/C=C(\C)CC/C=C(\C)CCC1OC1(C)C (stereo not drawn) [JH III, methyl (2E,6E)-10,11-epoxy-3,7,11-trimethyl-2,6dodecadienoate, reference compound]","activation of RXR (transcription from the reporter construct), in words",hRXRα [1],do not activate RXR
"COC(C)(C)CCCC(C)C/C=C/C(C)=C/C(=O)OC(C)C (stereo not drawn) [methoprene, isopropyl (2E,4E)-11-methoxy-3,7,11-trimethyl-2,4-dodecadienoate]",fold induction at 100 µM,hRXRα [1]; [4],80
same,"activation of RXR (transcription from the reporter construct), in words",hRXRα [1],activate RXR
same,"competition for [3H]9cRA binding to RXRα, in words",hRXRα [2],unable to displace 9cRA binding at any concentration; also recorded: unable to competitively bind RXR at any concentration
same,metabolism within cells,[3],metabolized within cells to several products
COC(C)(C)CCCC(C)C/C=C/C(C)=C/C(=O)O (stereo not drawn) [methoprene acid],fold induction at 10 µM,hRXRα [1]; [4],95
same,"competition for [3H]9cRA binding to RXRα, in words",hRXRα [2],competes well
same,"response of RXRα (transactivation), in words",mouse RXRα,respond strongly
same,"response of RXRβ (transactivation), in words",mouse RXRβ,responds only weakly
same,"response of RXRγ (transactivation), in words",mouse RXRγ,respond strongly
same,"activation of transcription with GAL4-RARα, in words",GAL4-hRARα,specific for activation of only the GAL4-RXR
same,"activation of transcription with GAL4-RARβ, in words",GAL4-hRARβ,specific for activation of only the GAL4-RXR
same,"activation of transcription with GAL4-RARγ, in words",GAL4-hRARγ,specific for activation of only the GAL4-RXR
same,"activation of transcription with GAL4-RXR, in words",GAL4-hRXRα,specific for activation of only the GAL4-RXR
same,effect of RXR-alpha in the presence of ligand on expression of genes under apolipoprotein AI regulatory elements,RXR-alpha,strong effect
"C/C(=C\c1ccc(C(=O)O)cc1)c1ccc2c(c1)C(C)(C)CCC2(C)C [TTNPB, (E)-4-[2-(5,6,7,8-tetrahydro-5,5,8,8-tetramethyl-2-napthalenyl)-1-propenyl]benzoic acid, reference compound]","activation of transcription with GAL4-RXR, in words",GAL4-hRXRα,exclusive response
